Measurements: the NIST ThermoML archive (doi:10.1021/je0503857)
± gives the expanded uncertainty stated by the source.

Legend:
[1] = Molar enthalpy of transition or fusion; conditions: DSC
[2] = for vapor or sublimation pressure: Liquid, Gas chromatography; for Normal melting temperature: Crystal, DTA
[3] = molar heat capacity at constant pressure; conditions: 298.15 K; 101.33 kPa; Crystal; Small sample (50 mg) DSC

Row | SMILES | Molar enthalpy of transition or fusion ([1]; Crystal) [kcal/mol] | vapor or sublimation pressure ([2]; 298.15 K) [kPa] | vapor or sublimation pressure ([2]; 300 K) [kPa] | vapor or sublimation pressure ([2]; 330 K) [kPa] | vapor or sublimation pressure ([2]; 360 K) [kPa] | vapor or sublimation pressure ([2]; 390 K) [kPa] | vapor or sublimation pressure ([2]; 420 K) [kPa] | vapor or sublimation pressure ([2]; 450 K) [kPa] | vapor or sublimation pressure ([2]; 480 K) [kPa] | vapor or sublimation pressure ([2]; 510 K) [kPa] | Normal melting temperature [2] [°C] | molar heat capacity at constant pressure [3] [J/K/mol] | Molar enthalpy of transition or fusion ([1]; Crystal 2) [kcal/mol]
1 | CCCCCCCCCCC(O)CCCCCC (configuration not stated) [7-heptadecanol] | 6.88 ± 0.215 | 1.959e-06 ± 2.1e-07 | 2.552e-06 ± 2.7e-07 | 0.0001153 ± 1.2e-05 | 0.002406 ± 0.00024 | 0.0273 ± 0.0027 | 0.192 ± 0.019 | 0.9282 ± 0.093 | 3.337 ± 0.33 | 9.481 ± 0.95 | 41.2 ± 0.5 | 472.6 ± 9.5 | 
2 | CCCCCCCCCCCCCCCCCCO [1-octadecanol] |  |  |  |  |  |  |  |  |  |  | 52.5 ± 5 | 517.4 ± 10 | 16.6 ± 0.43
3 | CCCCCCCCCCCCCC(O)CCC (configuration not stated) [4-heptadecanol] | 8.53 ± 0.239 |  |  |  |  |  |  |  |  |  | 38.4 ± 0.5 | 472.6 ± 9.5 | 
4 | CCCCCCCCCCCCCCCCCO [1-heptadecanol] |  | 6.86e-07 ± 7.9e-08 | 9.02e-07 ± 1e-07 | 4.724e-05 ± 4.8e-06 | 0.001125 ± 0.00011 | 0.01426 ± 0.0014 | 0.1098 ± 0.011 | 0.571 ± 0.057 | 2.174 ± 0.22 | 6.457 ± 0.65 | 52.2 ± 0.5 | 490.5 ± 9.8 | 15.2 ± 0.406
5 | CC(C)CCC[C@@H](C)[C@H]1CC[C@H]2[C@@H]3CC=C4C[C@@H](O)CC[C@]4(C)[C@H]3CC[C@]12C [.DELTA.5-cholesten-3β-ol] |  | 7.557e-11 | 1.065e-10 | 1.71e-08 ± 1.2e-08 | 1.132e-06 ± 1.2e-07 | 3.397e-05 ± 3.4e-06 | 0.0005237 ± 5.3e-05 | 0.004678 ± 0.00047 | 0.02685 ± 0.0027 | 0.1078 ± 0.011 |  |  | 
6 | CCCCCCCCCCCCCCCCCCCCCCO [1-docosanol] | 19.8 ± 0.526 |  |  | 5.89e-07 ± 7.1e-08 | 2.687e-05 ± 2.7e-06 | 0.000588 ± 5.9e-05 | 0.007063 ± 0.00071 | 0.0523 ± 0.0052 | 0.2627 ± 0.026 | 0.9664 ± 0.097 | 71.4 ± 0.5 | 625 ± 13 | 
7 | CCCCCCCCCCCC(O)CCCCC (configuration not stated) [6-heptadecanol] | 11.7 ± 0.311 | 1.813e-06 ± 1.9e-07 | 2.363e-06 ± 2.5e-07 | 0.0001082 ± 1.1e-05 | 0.002283 ± 0.00023 | 0.02614 ± 0.0026 | 0.1853 ± 0.019 | 0.901 ± 0.09 | 3.255 ± 0.33 | 9.287 ± 0.93 | 42.7 ± 0.5 | 472.6 ± 9.5 | 
8 | CCCCCCCCCCCCCCCCCCCCCCCCCCO [1-hexacosanol] | 24.8 ± 0.645 | 6.401e-11 | 9.145e-11 | 1.78e-08 ± 1.2e-08 | 1.364e-06 ± 1.5e-07 | 4.614e-05 ± 4.6e-06 | 0.0007898 ± 7.9e-05 | 0.007756 ± 0.00078 | 0.0486 ± 0.0049 | 0.212 ± 0.021 | 80.0 ± 0.5 | 732.6 ± 15 | 
9 | CCCCCCCCCCCCCCCCCCCCO [1-eicosanol] |  | 3.215e-08 ± 1.3e-08 | 4.345e-08 ± 1.4e-08 | 3.509e-06 ± 3.6e-07 | 0.0001228 ± 1.2e-05 | 0.002151 ± 0.00021 | 0.02156 ± 0.0022 | 0.1382 ± 0.014 | 0.6201 ± 0.062 | 2.091 ± 0.21 | 64 ± 1 | 571.2 ± 11 | 18.7 ± 0.502
10 | CCCCCCCCC(O)CCCCCCCC [9-heptadecanol] | 10.3 ± 0.287 | 1.895e-06 ± 2e-07 | 2.471e-06 ± 2.6e-07 | 0.0001127 ± 1.1e-05 | 0.002368 ± 0.00024 | 0.02704 ± 0.0027 | 0.1913 ± 0.019 | 0.929 ± 0.093 | 3.354 ± 0.34 | 9.568 ± 0.96 | 57.1 ± 0.5 | 472.6 ± 9.5 | 
